Measurements from the NIST ThermoML archive (doi:10.1016/j.jct.2018.02.014).
± gives the expanded uncertainty stated by the source.

Test: activity coefficient (dimensionless); of the first substance listed, at infinite dilution; xn = mol fraction of the nth substance listed
Conditions: 101.33 kPa, Liquid, Chromatography, x1 = 0

Structure (SMILES) | activity coefficient (318.15 K) | activity coefficient (328.15 K) | activity coefficient (338.15 K) | activity coefficient (348.15 K) | activity coefficient (358.15 K) | activity coefficient (368.15 K) | activity coefficient (298.15 K) | activity coefficient (308.15 K)
Cc1ccccc1C [1,2-dimethylbenzene] + CC[N+]1(C)CCOCC1.N#CN=C=[N-] | 10.8 ± 0.7 | 11.1 ± 0.8 | 11.4 ± 0.8 | 11.7 ± 0.8 | 12 ± 0.8 | 12.4 ± 0.8 | – | –
Cc1cccc(C)c1 [1,3-dimethylbenzene] + CC[N+]1(C)CCOCC1.N#CN=C=[N-] | 13.8 ± 0.9 | 14.1 ± 1 | 14.4 ± 1 | 14.7 ± 1 | 14.9 ± 1 | 15.2 ± 1 | – | –
Cc1ccc(C)cc1 [1,4-dimethylbenzene] + CC[N+]1(C)CCOCC1.N#CN=C=[N-] | 13.4 ± 0.9 | 13.7 ± 0.9 | 14 ± 1 | 14.3 ± 1 | 14.6 ± 1 | 14.9 ± 1 | – | –
C=CCCCCCCCC [1-decene] + CC[N+]1(C)CCOCC1.N#CN=C=[N-] | 1200 ± 83 | 1070 ± 74 | 960 ± 66 | 865 ± 60 | 785 ± 54 | 718 ± 49 | – | –
C=CCCCCC [1-heptene] + CC[N+]1(C)CCOCC1.N#CN=C=[N-] | 288 ± 20 | 268 ± 18 | 251 ± 17 | 236 ± 16 | 222 ± 15 | 210 ± 14 | – | –
C#CCCCCC [1-heptyne] + CC[N+]1(C)CCOCC1.N#CN=C=[N-] | 44.9 ± 3.1 | 46.3 ± 3.2 | 47.6 ± 3.3 | 49 ± 3.4 | 50.3 ± 3.4 | 51.6 ± 3.5 | – | –
C#CCCCC [1-hexyne] + CC[N+]1(C)CCOCC1.N#CN=C=[N-] | 24.8 ± 1.7 | 25.6 ± 1.8 | 26.4 ± 1.8 | 27.4 ± 1.9 | 28.1 ± 1.9 | 28.9 ± 2 | – | –
CCC[N+](=O)[O-] [1-nitropropane] + CC[N+]1(C)CCOCC1.N#CN=C=[N-] | 2.29 ± 0.16 | 2.39 ± 0.16 | 2.49 ± 0.17 | 2.59 ± 0.18 | 2.68 ± 0.18 | 2.78 ± 0.19 | – | –
C#CCCCCCC [1-octyne] + CC[N+]1(C)CCOCC1.N#CN=C=[N-] | 84.2 ± 5.8 | 84.6 ± 5.8 | 84.9 ± 5.8 | 85.6 ± 5.9 | 86.1 ± 5.9 | 86.8 ± 5.9 | – | –
C#CCCC [1-pentyne] + CC[N+]1(C)CCOCC1.N#CN=C=[N-] | 14.3 ± 1 | 14.8 ± 1 | 15.4 ± 1.1 | 15.9 ± 1.1 | 16.5 ± 1.1 | 17 ± 1.2 | – | –
CC(C)CC(C)(C)C [2,2,4-trimethylpentane] + CC[N+]1(C)CCOCC1.N#CN=C=[N-] | 951 ± 66 | 853 ± 59 | 768 ± 53 | – | – | – | 1220 ± 84 | 1070 ± 74
CC(C)=O [acetone] + CC[N+]1(C)CCOCC1.N#CN=C=[N-] | 1.61 ± 0.11 | 1.7 ± 0.11 | 1.8 ± 0.12 | 1.9 ± 0.13 | 1.99 ± 0.14 | 2.09 ± 0.14 | – | –

Results, then the molecule that gave them:

activity coefficient (318.15 K) | activity coefficient (328.15 K) | activity coefficient (338.15 K) | activity coefficient (348.15 K) | activity coefficient (358.15 K) | activity coefficient (368.15 K) | activity coefficient (298.15 K) | activity coefficient (308.15 K) | Structure (SMILES)
1.57 ± 0.1 | 1.69 ± 0.11 | 1.82 ± 0.12 | 1.94 ± 0.13 | 2.06 ± 0.14 | 2.19 ± 0.15 | – | – | C1COCCO1 [1,4-dioxane] + CC[N+]1(C)CCOCC1.N#CN=C=[N-]
– | 105 ± 7 | 108 ± 7 | 111 ± 8 | 113 ± 8 | 116 ± 8 | – | – | CCOC(C)(C)C [2-ethoxy-2-methylpropane] + CC[N+]1(C)CCOCC1.N#CN=C=[N-]
– | 55.7 ± 3.8 | 57.9 ± 4 | 60 ± 4.1 | 62.2 ± 4.3 | 64.3 ± 4.4 | – | – | CCC(C)(C)OC [2-methoxy-2-methylbutane] + CC[N+]1(C)CCOCC1.N#CN=C=[N-]
– | 33.1 ± 2.3 | 34.4 ± 2.4 | 35.6 ± 2.4 | 36.8 ± 2.5 | 38 ± 2.6 | – | – | COC(C)(C)C [2-methoxy-2-methylpropane] + CC[N+]1(C)CCOCC1.N#CN=C=[N-]
3.01 ± 0.2 | 2.93 ± 0.2 | 2.86 ± 0.19 | 2.79 ± 0.19 | 2.73 ± 0.19 | 2.67 ± 0.18 | – | – | CC(C)CO [2-methyl-1-propanol] + CC[N+]1(C)CCOCC1.N#CN=C=[N-]
2.77 ± 0.19 | 2.78 ± 0.19 | 2.8 ± 0.19 | 2.82 ± 0.19 | 2.83 ± 0.19 | 2.85 ± 0.19 | – | – | CC(C)(C)O [2-methylpropan-2-ol] + CC[N+]1(C)CCOCC1.N#CN=C=[N-]
10.5 ± 0.7 | 11.1 ± 0.8 | 11.6 ± 0.8 | 12.1 ± 0.8 | 12.6 ± 0.9 | 13.1 ± 0.9 | – | – | C=C(C)c1ccccc1 [(1-methylethenyl)benzene] + CC[N+]1(C)CCOCC1.N#CN=C=[N-]
0.966 ± 0.061 | 1.01 ± 0.06 | 1.06 ± 0.07 | 1.11 ± 0.07 | 1.16 ± 0.07 | 1.21 ± 0.08 | – | – | CC#N [acetonitrile] + CC[N+]1(C)CCOCC1.N#CN=C=[N-]
4.46 ± 0.3 | 4.62 ± 0.31 | 4.76 ± 0.32 | 4.91 ± 0.33 | 5.05 ± 0.34 | 5.2 ± 0.35 | – | – | c1ccccc1 [benzene] + CC[N+]1(C)CCOCC1.N#CN=C=[N-]
3.08 ± 0.21 | 3.02 ± 0.21 | 2.98 ± 0.2 | 2.94 ± 0.2 | 2.9 ± 0.2 | 2.86 ± 0.19 | – | – | CCCCO [butan-1-ol] + CC[N+]1(C)CCOCC1.N#CN=C=[N-]
2.98 ± 0.2 | 2.94 ± 0.2 | 2.9 ± 0.2 | 2.86 ± 0.19 | 2.83 ± 0.19 | 2.81 ± 0.19 | – | – | CCC(C)O (configuration not stated) [butan-2-ol] + CC[N+]1(C)CCOCC1.N#CN=C=[N-]
3.51 ± 0.24 | 3.65 ± 0.25 | 3.79 ± 0.26 | 3.92 ± 0.27 | 4.04 ± 0.28 | 4.17 ± 0.28 | – | – | CCCC=O [butanal] + CC[N+]1(C)CCOCC1.N#CN=C=[N-]
215 ± 15 | 202 ± 14 | 189 ± 13 | 179 ± 12 | 169 ± 12 | 161 ± 11 | – | – | C1CCCCCC1 [cycloheptane] + CC[N+]1(C)CCOCC1.N#CN=C=[N-]
168 ± 12 | 152 ± 10 | 138 ± 9 | 126 ± 9 | 115 ± 8 | 106 ± 7 | – | – | C1CCCCC1 [cyclohexane] + CC[N+]1(C)CCOCC1.N#CN=C=[N-]
50.7 ± 3.5 | 50 ± 3.4 | 49.4 ± 3.4 | – | – | – | – | – | C1=CCCCC1 [cyclohexene] + CC[N+]1(C)CCOCC1.N#CN=C=[N-]
313 ± 22 | 293 ± 20 | 273 ± 19 | 257 ± 18 | 242 ± 17 | 229 ± 16 | – | – | C1CCCCCCC1 [cyclooctane] + CC[N+]1(C)CCOCC1.N#CN=C=[N-]
2230 ± 150 | 2030 ± 140 | 1880 ± 130 | 1740 ± 120 | 1610 ± 110 | 1500 ± 100 | – | – | CCCCCCCCCC [decane] + CC[N+]1(C)CCOCC1.N#CN=C=[N-]
